From the supplement of paper PMC8617591

Tests used:
[1] = tested on: Mycobacterium tuberculosis Erdman (autoluminescent); test: total FIC50 (Loewe) at 50% inhibition, three-drug combination (log2); higher = more antagonistic
Protocol: (§1)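 DiaMOND equipotent three-drug combination dose responses (10 doses, 1.5- or 2-fold spacing, centred on IC90) against autoluminescent M. tuberculosis Erdman in 8 in vitro models. Read-out is OD600, or luminescence for the intracellular and dormancy models, normalised to untreated wells. Hill-fit Einf, AUC25 and GRinf are potency metrics; FIC50 and FIC90 are total Loewe fractional inhibitory concentrations as log2 (negative = synergy).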

[2] = tested on: Mycobacterium tuberculosis Erdman (autoluminescent); test: total FIC90 (Loewe) at 90% inhibition, three-drug combination (log2); higher = more antagonistic
Protocol: as §1

[3] = tested on: Mycobacterium tuberculosis Erdman (autoluminescent); test: Einf, fitted maximum growth inhibition of three-drug combination (fraction); higher = stronger maximal inhibition
Protocol: as §1

[4] = tested on: Mycobacterium tuberculosis Erdman (autoluminescent); test: AUC25, normalised area under dose response up to IC25 (three-drug combination) (fraction (0-1)); higher = more potent at low dose
Protocol: as §1

[5] = tested on: Mycobacterium tuberculosis Erdman (autoluminescent); test: GRinf, maximum normalised growth rate inhibition (three-drug combination) (unitless (-1 to 1)); higher = less effect (negative = killing)
Protocol: as §1

COc1nc2ccc(Br)cc2cc1[C@@H](c1ccccc1)[C@@](O)(CCN(C)C)c1cccc2ccccc12 [bedaquiline] + CC(C)/N=c1\cc2n(-c3ccc(Cl)cc3)c3ccccc3nc-2cc1Nc1ccc(Cl)cc1 [clofazimine] + O=[N+]([O-])c1cn2c(n1)OC[C@@H](OCc1ccc(OC(F)(F)F)cc1)C2 [pretomanid]
Settings	AUC25, [4]	Einf, [3]	GRinf, [5]	total FIC50, [1]	total FIC90, [2]
in vitro model: acidic pH 5.7, time point: constant (~7 days, model-specific)	0.106	0.809	-0.477	0.502	–
in vitro model: acidic pH 5.7, time point: terminal (~4-5 doublings, model-specific)	0.0881	0.968	-0.411	0.438	0.703
in vitro model: intracellular J774, time point: constant = terminal	–	0.986	-0.307	–	0.235

Settings	AUC25, [4]	Einf, [3]	GRinf, [5]	total FIC50, [1]	total FIC90, [2]
in vitro model: butyrate, time point: constant (~7 days, model-specific)	0.0748	0.948	-0.105	0.0794	-0.148
in vitro model: butyrate, time point: terminal (~4-5 doublings, model-specific)	0.0598	0.982	-0.123	0.0162	-0.232
in vitro model: cholesterol 0.05 mM, time point: constant (~7 days, model-specific)	0.101	0.724	-0.148	0.099	–
in vitro model: cholesterol 0.05 mM, time point: terminal (~4-5 doublings, model-specific)	0.111	0.938	-0.208	0.567	0.307
in vitro model: cholesterol-high 0.2 mM, time point: constant (~7 days, model-specific)	0.0786	0.94	-0.226	0.161	0.852
in vitro model: cholesterol-high 0.2 mM, time point: terminal (~4-5 doublings, model-specific)	0.0851	1	-0.559	0.209	0.0625
in vitro model: dormancy (butyrate + nitrate, low O2), time point: constant (~7 days, model-specific)	0.0645	0.942	0.201	-0.378	-1.22
in vitro model: dormancy (butyrate + nitrate, low O2), time point: terminal (~4-5 doublings, model-specific)	0.077	0.996	-0.219	-1.08	-1.15
in vitro model: standard 7H9 glycerol, time point: constant = terminal	0.0956	0.967	-0.0799	-0.29	-0.495
in vitro model: valerate, time point: constant (~7 days, model-specific)	0.119	0.91	-0.0979	0.482	-0.269
in vitro model: valerate, time point: terminal (~4-5 doublings, model-specific)	0.0785	0.954	-0.0498	0.323	0.514

COc1nc2ccc(Br)cc2cc1[C@@H](c1ccccc1)[C@@](O)(CCN(C)C)c1cccc2ccccc12 [bedaquiline] + CC(C)/N=c1\cc2n(-c3ccc(Cl)cc3)c3ccccc3nc-2cc1Nc1ccc(Cl)cc1 [clofazimine] + CC[C@@H](CO)NCCN[C@@H](CC)CO [ethambutol]
Settings	AUC25, [4]	Einf, [3]	GRinf, [5]	total FIC50, [1]	total FIC90, [2]
in vitro model: acidic pH 5.7, time point: constant (~7 days, model-specific)	0.0844	0.852	-0.216	0.516	–
in vitro model: acidic pH 5.7, time point: terminal (~4-5 doublings, model-specific)	0.0687	0.969	-0.273	0.534	0.129
in vitro model: intracellular J774, time point: constant = terminal	–	0.992	-0.72	–	-0.364

Settings	AUC25, [4]	Einf, [3]	GRinf, [5]	total FIC50, [1]	total FIC90, [2]
in vitro model: butyrate, time point: constant (~7 days, model-specific)	0.0618	0.945	-0.0931	0.078	–
in vitro model: butyrate, time point: terminal (~4-5 doublings, model-specific)	0.0476	0.976	-0.104	0.111	-0.667
in vitro model: cholesterol 0.05 mM, time point: constant (~7 days, model-specific)	0.0892	0.762	-0.109	0.0426	–
in vitro model: cholesterol 0.05 mM, time point: terminal (~4-5 doublings, model-specific)	0.117	0.937	-0.32	0.424	–
in vitro model: cholesterol-high 0.2 mM, time point: constant (~7 days, model-specific)	0.0568	0.996	-0.788	0.329	–
in vitro model: cholesterol-high 0.2 mM, time point: terminal (~4-5 doublings, model-specific)	0.0708	1	-0.736	0.543	0.542
in vitro model: dormancy (butyrate + nitrate, low O2), time point: constant (~7 days, model-specific)	0.102	0.82	0.429	0.788	–
in vitro model: dormancy (butyrate + nitrate, low O2), time point: terminal (~4-5 doublings, model-specific)	0.0994	0.991	-0.239	0.238	0.0433
in vitro model: standard 7H9 glycerol, time point: constant = terminal	0.0939	0.965	-0.0889	-0.254	–
in vitro model: valerate, time point: constant (~7 days, model-specific)	0.107	0.947	-0.0899	0.469	–
in vitro model: valerate, time point: terminal (~4-5 doublings, model-specific)	0.0804	0.962	-0.0795	0.16	-0.225

COc1nc2ccc(Br)cc2cc1[C@@H](c1ccccc1)[C@@](O)(CCN(C)C)c1cccc2ccccc12 [bedaquiline] + NNC(=O)c1ccncc1 [isoniazid] + CO[C@H]1/C=C/O[C@@]2(C)Oc3c(C)c(O)c4c(O)c(c(/C=N/N5CCN(C6CCCC6)CC5)c(O)c4c3C2=O)NC(=O)/C(C)=C\C=C\[C@H](C)[C@H](O)[C@@H](C)[C@@H](O)[C@@H](C)[C@H](OC(C)=O)[C@@H]1C [rifapentine]
Settings	AUC25, [4]	Einf, [3]	GRinf, [5]	total FIC50, [1]	total FIC90, [2]
in vitro model: acidic pH 5.7, time point: constant (~7 days, model-specific)	0.0986	0.958	-0.468	0.854	–
in vitro model: acidic pH 5.7, time point: terminal (~4-5 doublings, model-specific)	0.0903	0.998	-0.375	0.671	0.815
in vitro model: intracellular J774, time point: constant = terminal	–	0.92	-0.0955	–	0.118

Settings	AUC25, [4]	Einf, [3]	GRinf, [5]	total FIC50, [1]	total FIC90, [2]
in vitro model: butyrate, time point: constant (~7 days, model-specific)	0.0748	0.93	-0.0408	0.749	-0.0255
in vitro model: butyrate, time point: terminal (~4-5 doublings, model-specific)	0.0596	0.969	-0.0505	0.65	0.51
in vitro model: cholesterol 0.05 mM, time point: constant (~7 days, model-specific)	0.0859	0.689	-0.113	0.606	–
in vitro model: cholesterol 0.05 mM, time point: terminal (~4-5 doublings, model-specific)	0.0803	0.905	-0.101	0.573	0.195
in vitro model: cholesterol-high 0.2 mM, time point: constant (~7 days, model-specific)	0.0656	0.954	-0.564	0.787	–
in vitro model: cholesterol-high 0.2 mM, time point: terminal (~4-5 doublings, model-specific)	0.06	1	-0.621	0.962	0.847
in vitro model: dormancy (butyrate + nitrate, low O2), time point: constant (~7 days, model-specific)	0.0684	0.89	0.303	0.628	0.878
in vitro model: dormancy (butyrate + nitrate, low O2), time point: terminal (~4-5 doublings, model-specific)	0.0424	0.986	-0.0574	0.557	0.296
in vitro model: standard 7H9 glycerol, time point: constant = terminal	0.0599	0.942	-0.00945	0.229	-0.235
in vitro model: valerate, time point: constant (~7 days, model-specific)	0.0499	0.906	-0.146	0.867	–
in vitro model: valerate, time point: terminal (~4-5 doublings, model-specific)	0.0394	0.958	-0.122	1.05	1
